One block for each substance: values may come before it.
Tests used:
Test in all cases: Histone peptide microarray
Format in all cases: binding, human
Conditions in all cases: arrays performed twice
CHD4 (PPCC) = tested on: CHD4 (PPCC)
In short: (§1)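 Using an optimized microarray protocol, purified GST-tagged PHD fingers were incubated at 0.5 μM on 293 histone peptides with single or multiple modifications, and array signal was recorded as the average of 4 replicates.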

ING3 = tested on: ING3
In short: as §1

KDM7A = tested on: KDM7A
In short: as §1

PHF13 = tested on: PHF13
In short: as §1

PHF21A = tested on: PHF21A
In short: as §1

KDM4C (TTP) = tested on: KDM4C (TTP)
In short: as §1

ING5 = tested on: ING5
In short: as §1

ING1 = tested on: ING1
In short: as §1

PHRF1 (RP) = tested on: PHRF1 (RP)
In short: as §1

CHD5 (PPCC) = tested on: CHD5 (PPCC)
In short: as §1

SP140L = tested on: SP140L
In short: as §1

PHF2 = tested on: PHF2
In short: as §1

AIRE (PP) = tested on: AIRE (PP)
In short: as §1

KDM5A (3) = tested on: KDM5A (3)
In short: as §1

DIDO1 = tested on: DIDO1
In short: as §1

KDM5A (1) = tested on: KDM5A (1)
In short: as §1

BPTF (PB) = tested on: BPTF (PB)
In short: as §1

DPF2 (PPC2W2) = tested on: DPF2 (PPC2W2)
In short: as §1

KDM5B (1) = tested on: KDM5B (1)
In short: as §1

ING4 = tested on: ING4
In short: as §1

MLL5 = tested on: MLL5
In short: as §1

PHF8 = tested on: PHF8
In short: as §1

ING2 = tested on: ING2
In short: as §1

TAF3 = tested on: TAF3
In short: as §1

PHF23 = tested on: PHF23
In short: as §1

CHD5 (PCC) = tested on: CHD5 (PCC)
In short: as §1

TRIM66 (PB) = tested on: TRIM66 (PB)
In short: as §1

RAG2 = tested on: RAG2
In short: as §1

KDM5B (3) = tested on: KDM5B (3)
In short: as §1

MORC3 (CW) = tested on: MORC3 (CW)
In short: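 GST-tagged PHD readers, 0.5 μM, probed on a microarray of 293 synthetic histone peptides carrying single or combinatorial PTMs (optimized Petell protocol). Signals are averaged over 4 replicates and expressed as relative binding.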

BAZ2B = tested on: BAZ2B
In short: as §1

Array Heatmap value (peptide array binding signal) (CHD4 (PPCC); CHD4 (PPCC), GST-tagged, n of 4): 0.6413 | Array Heatmap value (peptide array binding signal) (ING3; ING3, GST-tagged, n of 4): 0.4903 | Array Heatmap value (peptide array binding signal) (KDM7A; KDM7A, GST-tagged, n of 4): 0.5232 | Array Heatmap value (peptide array binding signal) (PHF13; PHF13, GST-tagged, n of 4): 0.6442 | Array Heatmap value (peptide array binding signal) (PHF21A; PHF21A, GST-tagged, n of 4): 0.4741 | Array Heatmap value (peptide array binding signal) (KDM4C (TTP); KDM4C (TTP), GST-tagged, n of 4): 0.5571 | Array Heatmap value (peptide array binding signal) (ING5; ING5, GST-tagged, n of 4): 0.397 | Array Heatmap value (peptide array binding signal) (ING1; ING1, GST-tagged, n of 4): 0.59 | Array Heatmap value (peptide array binding signal) (PHRF1 (RP); PHRF1 (RP), GST-tagged, n of 4): 0.4628 | Array Heatmap value (peptide array binding signal) (CHD5 (PPCC); CHD5 (PPCC), GST-tagged, n of 4): 0.5941 | Array Heatmap value (peptide array binding signal) (SP140L; SP140L, GST-tagged, n of 4): 0.3812 | Array Heatmap value (peptide array binding signal) (PHF2; PHF2, GST-tagged, n of 4): 0.5123 | Array Heatmap value (peptide array binding signal) (AIRE (PP); AIRE (PP), GST-tagged, n of 4): 0.5101 | Array Heatmap value (peptide array binding signal) (KDM5A (3); KDM5A (3), GST-tagged, n of 4): 0.4938 | Array Heatmap value (peptide array binding signal) (DIDO1; DIDO1, GST-tagged, n of 4): 0.7788 | Array Heatmap value (peptide array binding signal) (KDM5A (1); KDM5A (1), GST-tagged, n of 4): 0.5113 | Array Heatmap value (peptide array binding signal) (BPTF (PB); BPTF (PB), GST-tagged, n of 4): 0.3717 | Array Heatmap value (peptide array binding signal) (DPF2 (PPC2W2); DPF2 (PPC2W2), GST-tagged, n of 4): 0.7579 | Array Heatmap value (peptide array binding signal) (KDM5B (1); KDM5B (1), GST-tagged, n of 4): 0.6648 | Array Heatmap value (peptide array binding signal) (ING4; ING4, GST-tagged, n of 4): 0.5057 | Array Heatmap value (peptide array binding signal) (MLL5; MLL5, GST-tagged, n of 4): 0.6112 | Array Heatmap value (peptide array binding signal) (PHF8; PHF8, GST-tagged, n of 4): 0.4334 | Array Heatmap value (peptide array binding signal) (ING2; ING2, GST-tagged, n of 4): 0.6399 | Array Heatmap value (peptide array binding signal) (TAF3; TAF3, GST-tagged, n of 4): 0.2755 | Array Heatmap value (peptide array binding signal) (PHF23; PHF23, GST-tagged, n of 4): 0.5869 | Array Heatmap value (peptide array binding signal) (CHD5 (PCC); CHD5 (PCC), GST-tagged, n of 4): 0.7773 | Array Heatmap value (peptide array binding signal) (TRIM66 (PB); TRIM66 (PB), GST-tagged, n of 4): 0.5647 | Array Heatmap value (peptide array binding signal) (RAG2; RAG2, GST-tagged, n of 4): 0.2504 | Array Heatmap value (peptide array binding signal) (KDM5B (3); KDM5B (3), GST-tagged, n of 4): 0.4825 | Array Heatmap value (peptide array binding signal) (MORC3 (CW); MORC3 (CW), GST-tagged, n of 4): 0.3763 | Array Heatmap value (peptide array binding signal) (BAZ2B; BAZ2B, GST-tagged, n of 4): 0.4957
Substance: H3 (21-44): H3 21-44

Substance: H3 (52-61): H3 52-61 (RRYQKSTELL; UniProt P68431 53-62, looked up, fragment)
Array Heatmap signal, CHD4 (PPCC) (CHD4 (PPCC); sheet "Array Heatmap", GST-tagged CHD4 (PPCC), total replicate number n = 4): 0.678 | Array Heatmap signal, ING3 (ING3; sheet "Array Heatmap", GST-tagged ING3, total replicate number n = 4): 0.5651 | Array Heatmap signal, KDM7A (KDM7A; sheet "Array Heatmap", GST-tagged KDM7A, total replicate number n = 4): 0.4034 | Array Heatmap signal, PHF13 (PHF13; sheet "Array Heatmap", GST-tagged PHF13, total replicate number n = 4): 0.7152 | Array Heatmap signal, PHF21A (PHF21A; sheet "Array Heatmap", GST-tagged PHF21A, total replicate number n = 4): 0.5243 | Array Heatmap signal, KDM4C (TTP) (KDM4C (TTP); sheet "Array Heatmap", GST-tagged KDM4C (TTP), total replicate number n = 4): 0.5685 | Array Heatmap signal, ING5 (ING5; sheet "Array Heatmap", GST-tagged ING5, total replicate number n = 4): 0.4351 | Array Heatmap signal, ING1 (ING1; sheet "Array Heatmap", GST-tagged ING1, total replicate number n = 4): 0.6486 | Array Heatmap signal, PHRF1 (RP) (PHRF1 (RP); sheet "Array Heatmap", GST-tagged PHRF1 (RP), total replicate number n = 4): 0.5632 | Array Heatmap signal, CHD5 (PPCC) (CHD5 (PPCC); sheet "Array Heatmap", GST-tagged CHD5 (PPCC), total replicate number n = 4): 0.6595 | Array Heatmap signal, SP140L (SP140L; sheet "Array Heatmap", GST-tagged SP140L, total replicate number n = 4): 0.4012 | Array Heatmap signal, PHF2 (PHF2; sheet "Array Heatmap", GST-tagged PHF2, total replicate number n = 4): 0.6756 | Array Heatmap signal, AIRE (PP) (AIRE (PP); sheet "Array Heatmap", GST-tagged AIRE (PP), total replicate number n = 4): 0.514 | Array Heatmap signal, KDM5A (3) (KDM5A (3); sheet "Array Heatmap", GST-tagged KDM5A (3), total replicate number n = 4): 0.5465 | Array Heatmap signal, DIDO1 (DIDO1; sheet "Array Heatmap", GST-tagged DIDO1, total replicate number n = 4): 0.9 | Array Heatmap signal, KDM5A (1) (KDM5A (1); sheet "Array Heatmap", GST-tagged KDM5A (1), total replicate number n = 4): 0.5239 | Array Heatmap signal, BPTF (PB) (BPTF (PB); sheet "Array Heatmap", GST-tagged BPTF (PB), total replicate number n = 4): 0.412 | Array Heatmap signal, DPF2 (PPC2W2) (DPF2 (PPC2W2); sheet "Array Heatmap", GST-tagged DPF2 (PPC2W2), total replicate number n = 4): 0.817 | Array Heatmap signal, KDM5B (1) (KDM5B (1); sheet "Array Heatmap", GST-tagged KDM5B (1), total replicate number n = 4): 0.6945 | Array Heatmap signal, ING4 (ING4; sheet "Array Heatmap", GST-tagged ING4, total replicate number n = 4): 0.5513 | Array Heatmap signal, MLL5 (MLL5; sheet "Array Heatmap", GST-tagged MLL5, total replicate number n = 4): 0.6079 | Array Heatmap signal, PHF8 (PHF8; sheet "Array Heatmap", GST-tagged PHF8, total replicate number n = 4): 0.404 | Array Heatmap signal, ING2 (ING2; sheet "Array Heatmap", GST-tagged ING2, total replicate number n = 4): 0.6326 | Array Heatmap signal, TAF3 (TAF3; sheet "Array Heatmap", GST-tagged TAF3, total replicate number n = 4): 0.3129 | Array Heatmap signal, PHF23 (PHF23; sheet "Array Heatmap", GST-tagged PHF23, total replicate number n = 4): 0.6261 | Array Heatmap signal, CHD5 (PCC) (CHD5 (PCC); sheet "Array Heatmap", GST-tagged CHD5 (PCC), total replicate number n = 4): 0.8381 | Array Heatmap signal, TRIM66 (PB) (TRIM66 (PB); sheet "Array Heatmap", GST-tagged TRIM66 (PB), total replicate number n = 4): 0.6688 | Array Heatmap signal, RAG2 (RAG2; sheet "Array Heatmap", GST-tagged RAG2, total replicate number n = 4): 0.2955 | Array Heatmap signal, KDM5B (3) (KDM5B (3); sheet "Array Heatmap", GST-tagged KDM5B (3), total replicate number n = 4): 0.517 | Array Heatmap signal, MORC3 (CW) (MORC3 (CW); sheet "Array Heatmap", GST-tagged MORC3 (CW), total replicate number n = 4): 0.4348 | Array Heatmap signal, BAZ2B (BAZ2B; sheet "Array Heatmap", GST-tagged BAZ2B, total replicate number n = 4): 0.5444

Reference: PMC6979384, “Characterization of the plant homeodomain (PHD) reader family for their histone tail interactions” (Epigenetics & Chromatin, 2020)
